US9187477B2, “Azabenzimidazole derivatives” (Boehringer Ingelheim International GmbH, priority 2013, dated 2015)

Experiments:
[1] = Metabolic stability: metabolic degradation with pooled human liver microsomes; assay type: in vitro ADME; settings: for c (control) (metabolic stability), remaining test compound after NADPH independent incubation: incubation without NADPH, after 2 hours, human liver microsomes; for t1/2 INVITRO: pooled human liver microsomes 1 mg/ml, 37° C., test compound 1 μM, NADPH 1 mM
Protocol: The metabolic degradation of the test compound is assayed at 37° C. with pooled human liver microsomes. The final incubation volume of 100 μl per time point contains TRIS buffer pH 7.6 at room temperature (0.1 M), magnesium chloride (5 mM), microsomal protein (1 mg/ml) and the test compound at a final concentration of 1 μM.
Following a short preincubation period at 37° C., the reactions were initiated by addition of beta-nicotinamide adenine dinucleotide phosphate, reduced form (NADPH, 1 mM) and terminated by transferring an aliquot into solvent after different time points.
Additionally, the NADPH-independent degradation was monitored in incubations without NADPH, terminated at 2 hour time point. The [%] remaining test compound after NADPH independent incubation is reflected by the parameter c (control) (metabolic stability). A c (control) (metabolic stability) value around 100% excludes cofactor independent activities (e.g. from esterases).
The quenched incubations are pelleted by centrifugation (10000 g, 5 min).
An aliquot of the supernatant is assayed by LC-MS/MS for the amount of parent compound. The half-life (t1/2 INVITRO) is determined by the slope of the semilogarithmic plot of the concentration-time profile.

[2] = target: AMPK complex 1 (containing alpha1beta1gamma1) (Homo sapiens (Human), UniProt Q13131+Q9Y478); assay: in vitro AMPK activation assay (ADP-Glo Kinase Assay); assay type: biochemical; settings: AMPK alpha1beta1gamma1, ATP 30 μM, peptide 1 μM, 60 min, room temperature
AMPK complex 1 (containing alpha1beta1gamma1), sequence (Q13131 whole entry, the tested form may be a part): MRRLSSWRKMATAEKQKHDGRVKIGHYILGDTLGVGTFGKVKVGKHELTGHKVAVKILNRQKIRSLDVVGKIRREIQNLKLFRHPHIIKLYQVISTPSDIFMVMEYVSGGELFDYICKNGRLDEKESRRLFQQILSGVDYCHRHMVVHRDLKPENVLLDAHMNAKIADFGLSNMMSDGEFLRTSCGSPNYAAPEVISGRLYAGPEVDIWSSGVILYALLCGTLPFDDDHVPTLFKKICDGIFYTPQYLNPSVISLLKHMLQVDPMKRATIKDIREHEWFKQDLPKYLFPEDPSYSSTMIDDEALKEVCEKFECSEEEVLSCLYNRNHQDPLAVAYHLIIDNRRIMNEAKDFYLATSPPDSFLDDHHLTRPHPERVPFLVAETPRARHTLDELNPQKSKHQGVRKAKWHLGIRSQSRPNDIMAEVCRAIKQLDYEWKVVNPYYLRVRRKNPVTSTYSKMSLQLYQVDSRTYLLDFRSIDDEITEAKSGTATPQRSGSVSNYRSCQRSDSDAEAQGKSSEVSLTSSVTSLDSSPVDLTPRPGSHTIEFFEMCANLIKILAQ
AMPK complex 1 (containing alpha1beta1gamma1), sequence (Q9Y478 whole entry, the tested form may be a part): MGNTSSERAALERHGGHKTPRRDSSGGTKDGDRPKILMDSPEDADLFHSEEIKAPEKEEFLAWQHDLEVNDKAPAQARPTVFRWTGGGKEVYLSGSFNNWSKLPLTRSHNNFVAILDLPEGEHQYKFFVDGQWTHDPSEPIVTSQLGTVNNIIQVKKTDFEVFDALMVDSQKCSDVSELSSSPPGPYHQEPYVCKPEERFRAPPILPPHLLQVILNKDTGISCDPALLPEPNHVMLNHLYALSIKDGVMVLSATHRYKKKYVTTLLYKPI
AMPK complex 1 (containing alpha1beta1gamma1), sequence (P54619 whole entry partner, the tested form may be a part): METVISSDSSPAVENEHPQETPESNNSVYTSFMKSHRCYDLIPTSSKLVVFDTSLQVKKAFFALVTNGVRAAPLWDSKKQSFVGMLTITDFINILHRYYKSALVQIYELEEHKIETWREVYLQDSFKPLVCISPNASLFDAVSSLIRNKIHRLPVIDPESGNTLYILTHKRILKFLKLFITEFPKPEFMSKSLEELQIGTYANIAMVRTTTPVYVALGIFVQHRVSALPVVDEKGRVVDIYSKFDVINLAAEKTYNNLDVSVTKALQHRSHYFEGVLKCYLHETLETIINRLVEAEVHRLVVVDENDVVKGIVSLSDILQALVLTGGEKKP
Excerpt: Activated AMPK complex 1 (containing alpha1beta1gamma1) was obtained from baculovirus expression system. The gene encoding AMPK alpha1 was cloned into the pACG2T vector (BD Biosciences) to obtain a N-terminal Glutathion S transferase (GST)-fusion protein. The genes encoding AMPK beta1 and gamma1 were cloned into the p2Bac dual multiple cloning site vector (Invitrogen) with beta1 under the control of the p10 promoter and gamma1 under the control of the PH promoter. The transfer vectors containing AMPK were co-transfected individually with AcPNV BacMagic-3 DNA (EMD Millipore) in Sf9 cells and the recombinant baculoviruses were harvested after 5 days, followed by 3 rounds of amplification of the virus stock in Sf9 cells. AMPK (alpha1beta1gamma1) was expressed in High Five 5 cells by co-infection of recombinant alpha1 virus and recombinant beta1/gamma1 virus for 72 h at 27° C. Cells were harvested by centrifugation and lysed by 3 freeze/thaw cycles in PBS with 10% glycerol and protease inhibitor cocktail (Roche). After centrifugation AMPK a1b1g1 in the supernatant was captured by immobilized glutathione (GE Healthcare), impurities were washed away with PBS and AMPK alpha1beta1gamma1 was eluted with PBS containing 20 mM reduced gluthathione. The protein buffer was then exchanged to PBS with 10% glycerol and protein concentration was determined by UV absorbance.
The white 384-well Optiplates (cat. no. 6007299) were purchased from PerkinElmer. The V9101 ADP-Glo Kinase Assay and ultra pure ATP (V915A) was purchased from Promega. The substrate for AMPK (NH2-HMRSAMSGLHLVKRR_CONH2) was purchased from Upstate (12-355).
Compounds were tested in either serial dilutions or single dose concentrations. The serial compound dilutions were prepared in 100% DMSO automatically. The final DMSO concentration in the assay was 0.1%.
The Compound Stock Solutions were 10 mM in 100% DMSO. The compounds were solubilised at room temperature.
In the 384-well plates 1.25 ul of test compound in assay buffer was mixed with 1.25 ul of AMPK and 1.25 μl of the peptide (final concentration of 1 μM) and 1.25 μl of ATP (final concentration of 30 μM), both dissolved in assay buffer. This step was followed by an incubation time of 60 min. Then 5 μl of ADP Glo Reagent was added. This was followed by 40 min of incubation. Then 10 μl of Kinase Detection Reagent was admixed. The plates were sealed and after an incubation period of 30 min, the luminescence signal was measured in an Envision reader. All incubation steps were accomplished at room temperature.
Each assay microtiter plate contained wells with vehicle controls instead of compound (0.1% DMSO in water) as reference for the low signal (100% CTL, low signal), and wells with serial dilutions of AMP (final 30 μM) as reference for high signals.
The luminescence signal generated was proportional to the ADP concentration produced and was correlated with AMPK activity. The analysis of the data was performed by the calculation of the percentage of ATP consumption of AMPK in the presence of the test compound compared to the consumption of ATP in the presence of AMPK without compound. (RLU(sample)/RLU(low control))*100[RLU=relative luminescence units]
An activator of the AMPK enzyme gave values above 100% CTL.
EC50 values based on dose response curves are calculated with the XIFIT software using the 4 Parameter Logistic Model or Sigmoidal Dose-Response Model.

Row | c (control) (metabolic stability), remaining test compound after NADPH independent incubation [1] | t1/2 INVITRO [1] | Compound | EC50 [2]
1 | 106% | 1.83 h | CC(C)NC(=O)O[C@H]1CC[C@@H](c2ccc(-c3nc4[nH]c(O[C@@H]5CO[C@H]6[C@@H]5OC[C@H]6O)nc4cc3Cl)cc2)CC1 [Example 11, (cis)-4-(4-(6-Chloro-2-((3R,3aR,6R,6aR)-6-hydroxyhexahydrofuro[3,2-b]furan-3-yloxy)-3H-imidazo[4,5-b]pyridin-5-yl)phenyl)cyclohexyl isopropylcarbamate] | 35 nM
2 | 100% | >2.17 h | O=C(O[C@H]1CC[C@H](c2ccc(-c3nc4[nH]c(O[C@@H]5CO[C@H]6[C@@H]5OC[C@H]6O)nc4cc3Cl)cc2)CC1)N1CCCC1 [Example 9, (trans)-4-(4-(6-Chloro-2-((3R,3aR,6R,6aR)-6-hydroxyhexahydrofuro[3,2-b]furan-3-yloxy)-3H-imidazo[4,5-b]pyridin-5-yl)phenyl)cyclohexyl pyrrolidine-1-carboxylate] | 17 nM
